pIC50: −log10 of the molar value.
Tests used:
[1] = Cytotoxicity against human Molt 4/C8 cells; format: functional, cell-based; conditions: Molt4/C8
CCRF-CEM = assay: Cytotoxicity against human CEM cells; format: functional, cell-based
L1210 = assay: Cytotoxicity against mouse L1210 cells; format: functional, cell-based
[2] = Cytotoxicity against human colon cancer cells; format: functional; conditions: Cancer cell lines
[3] = Cytotoxicity against human leukemia cells; format: functional; conditions: Leukemia cell
[4] = target: T1, Glycylpeptide N-tetradecanoyltransferase 1 (Homo sapiens) (UniProt P30419); assay: Inhibition of human NMT at 100 uM
T1 sequence (whole entry): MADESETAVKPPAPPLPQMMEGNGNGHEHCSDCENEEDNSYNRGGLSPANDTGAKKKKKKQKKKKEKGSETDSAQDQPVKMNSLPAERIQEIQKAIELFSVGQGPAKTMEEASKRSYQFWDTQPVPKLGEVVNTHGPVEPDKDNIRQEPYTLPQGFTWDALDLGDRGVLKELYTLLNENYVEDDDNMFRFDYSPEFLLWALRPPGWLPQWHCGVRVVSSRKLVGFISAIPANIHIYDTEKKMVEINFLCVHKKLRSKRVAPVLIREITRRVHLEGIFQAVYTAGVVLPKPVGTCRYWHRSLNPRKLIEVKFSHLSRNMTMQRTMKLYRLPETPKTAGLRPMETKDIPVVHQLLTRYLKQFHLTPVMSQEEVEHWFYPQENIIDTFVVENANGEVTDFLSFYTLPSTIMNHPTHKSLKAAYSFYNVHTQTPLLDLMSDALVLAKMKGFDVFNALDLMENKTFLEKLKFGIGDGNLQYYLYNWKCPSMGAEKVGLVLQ

Aspergillus fumigatus [5] = assay: Antifungal activity against Aspergillus fumigatus F69827; format: functional
Aspergillus fumigatus [6] = assay: Antifungal activity against Aspergillus fumigatus M44251; format: functional
Aspergillus fumigatus [7] = assay: Antifungal activity against Aspergillus fumigatus ATCC 280995; format: functional
Aspergillus fumigatus [8] = assay: Antifungal activity against Aspergillus fumigatus ATCC 280996; format: functional
Aspergillus fumigatus [9] = assay: Antifungal activity against Aspergillus fumigatus ATCC 280997; format: functional
Mus musculus = assay: Neurotoxicity in mouse assessed as mortality up to 300 mg/kg after 4 hrs; format: toxicity, organism-based; set-up: dose 300 mg/kg; conditions: in vivo
[10] = target: T1, Glycylpeptide N-tetradecanoyltransferase 1 (Homo sapiens); assay: Inhibition of human NMT at 50 uM

SMILES | pIC50 [1] | pIC50 (CCRF-CEM) | pIC50 (L1210) | GI50 [2] | GI50 [3] | inhibition [4] | MIC (Aspergillus fumigatus [5]) | MIC (Aspergillus fumigatus [6]) | MIC (Aspergillus fumigatus [7]) | MIC (Aspergillus fumigatus [8]) | MIC (Aspergillus fumigatus [9]) | Activity (Mus musculus) | inhibition [10]
O=C(/C=C/C(=O)N1C/C(=C\c2ccccc2)C(=O)/C(=C/c2ccccc2)C1)Nc1ccc(Cl)c(Cl)c1 | 5.77 | 6.46 | 5.12 | 646 nM | 447 nM | 50% | > 50 µg/mL | > 50 µg/mL | > 50 µg/mL | > 50 µg/mL | > 50 µg/mL | Non-toxic | 
Cc1ccc(NC(=O)/C=C/C(=O)N2C/C(=C\c3ccccc3)C(=O)/C(=C/c3ccccc3)C2)cc1C | 5.10 | 5.15 | 4.51 |  |  |  | > 50 µg/mL | > 50 µg/mL | > 50 µg/mL | > 50 µg/mL | > 50 µg/mL | Non-toxic | 
CC(=O)c1ccc(NC(=O)/C=C/C(=O)N2C/C(=C\c3ccccc3)C(=O)/C(=C/c3ccccc3)C2)cc1 | 5.85 | 5.77 | 5.26 |  |  |  | > 50 µg/mL | > 50 µg/mL | > 50 µg/mL | > 50 µg/mL | > 50 µg/mL | Non-toxic | 
Cc1ccc(NC(=O)/C=C/C(=O)N2C/C(=C\c3ccc([N+](=O)[O-])cc3)C(=O)/C(=C/c3ccc([N+](=O)[O-])cc3)C2)cc1C | 6.18 | 6.15 | 5.31 |  |  |  | > 50 µg/mL | > 50 µg/mL | > 50 µg/mL | > 50 µg/mL | > 50 µg/mL | Non-toxic | 
O=C(/C=C/C(=O)N1C/C(=C\c2ccc([N+](=O)[O-])cc2)C(=O)/C(=C/c2ccc([N+](=O)[O-])cc2)C1)Nc1ccc(Cl)cc1 | 5.92 | 6.09 | 5.44 |  |  |  | > 50 µg/mL | > 50 µg/mL | > 50 µg/mL | > 50 µg/mL | > 50 µg/mL | Non-toxic | 
Cc1ccc(NC(=O)/C=C/C(=O)N2C/C(=C\c3ccccc3)C(=O)/C(=C/c3ccccc3)C2)cc1 | 6.18 | 5.96 | 5.24 |  |  |  | > 50 µg/mL | > 50 µg/mL | > 50 µg/mL | > 50 µg/mL | > 50 µg/mL | Non-toxic | 50%
O=C(/C=C/C(=O)N1C/C(=C\c2ccccc2)C(=O)/C(=C/c2ccccc2)C1)Nc1ccc([N+](=O)[O-])cc1 | 4.51 | 4.40 | 4.40 |  |  |  | > 50 µg/mL | > 50 µg/mL | > 50 µg/mL | > 50 µg/mL | > 50 µg/mL | Non-toxic | 
C[C@@H](c1ncncc1F)[C@](O)(Cn1cncn1)c1ccc(F)cc1F [VORICONAZOLE] |  |  |  |  |  |  | ≤ 0.25 µg/mL | ≤ 0.25 µg/mL | ≤ 0.25 µg/mL | ≤ 0.25 µg/mL | ≤ 0.25 µg/mL |  | 
O=C(/C=C/C(=O)N1C/C(=C\c2ccc([N+](=O)[O-])cc2)C(=O)/C(=C/c2ccc([N+](=O)[O-])cc2)C1)Nc1ccc(Cl)c(Cl)c1 | 6.22 | 6.42 | 5.77 |  |  | 50% | > 50 µg/mL | > 50 µg/mL | > 50 µg/mL | > 50 µg/mL | > 50 µg/mL | Non-toxic | 
O=C(/C=C/C(=O)N1C/C(=C\c2ccccc2)C(=O)/C(=C/c2ccccc2)C1)Nc1ccccc1 | 6.28 | 5.96 | 5.44 |  |  |  | > 50 µg/mL | > 50 µg/mL | > 50 µg/mL | > 50 µg/mL | > 50 µg/mL | Non-toxic | 
O=C(/C=C/C(=O)N1C/C(=C\c2ccc([N+](=O)[O-])cc2)C(=O)/C(=C/c2ccc([N+](=O)[O-])cc2)C1)Nc1ccccc1 | 6.44 | 6.43 | 5.74 |  |  |  | > 50 µg/mL | > 50 µg/mL | > 50 µg/mL | > 50 µg/mL | > 50 µg/mL | Non-toxic | 

— ChEMBL document CHEMBL1149619, “E,E,E-1-(4-Arylamino-4-oxo-2-butenoyl)-3,5-bis(arylidene)-4-piperidones: a topographical study of some novel potent cytotoxins” (Bioorg Med Chem, 2007)
